Data on six molecules can be found in US4241077A, “β-Oxo-3-thiophenepropionitrile and β-amino-2-(3)-thiopheneacrylonitriles” (American Cyanamid Company, priority 1979, dated 1980).

Data set [1] has as its system adjuvant induced arthritis (Freund's adjuvant) in rats. The data set can be described thus: Adjuvant induced arthritis in rats (oral, once daily days 0 through 13 post challenge). Type of data set: in vivo, Royal Hart, Wistar strain rats. As to the method:
Groups of three Royal Hart, Wistar strain rats weighing 200±10 grams each were injected intradermally in the right hind paw with Freund's adjuvant (dried human tubercle bacilli in a mineral oil vehicle) at a dose of 2 mg./kg. of body weight. Test compounds were administered orally in a 1.5% starch vehicle at various doses once daily on days 0 through 13 post challenge. Control rats were treated in a similar manner, but given only starch vehicle. On the 14th and 21st day post challenge the diameter of the injected paw (primary lesion) was measured by micrometer caliper. The volume of inflamed paws were estimated from these measurements and the results are expressed as percent inhibition of swelling as compared to controls. At the same time, the other inflamed sites, such as ears, paws and tail (secondary lesions) were observed and each rat was graded as to degree of inflammation and swelling present. The grading is based on a scale of 0 to 24, where 0 represents a complete absence of induced arthritic nodules and 24 represents the maximum degree of inflammation. The mean grade for each treated group is calculated and the effects of each compound are expressed as percent inhibition of the control grade. Table I below records the results of tests conducted with the compounds of this invention and known anti-inflammatory agents. The compounds of this invention appear to suppress the progression of the arthritis and associated joint deterioration.

Data set [2] relates to adjuvant induced experimental polyarthritis. The settings on record: result in words; literature; cited from earlier work.

For the molecule `N#CC=C(N)c1cccs1` [β-Amino-2-thiopheneacrylonitrile, β-amino-2-thiopheneacrylonitrile], the “Dead/Treated at 21 Days” value in data set [1] (oral 50 mg./kg. of body weight) was 1/33; in data set [1] (oral 100 mg./kg. of body weight) it was 2/18; in data set [1] (oral 200 mg./kg. of body weight) it was 6/18. The “% Inhibition of Control Grade (secondary lesion)” value in data set [1] (oral 50 mg./kg., Day 14) is listed as 21%; in data set [1] (oral 50 mg./kg., Day 21) it was 6%; in data set [1] (oral 100 mg./kg., Day 14), 25%; in data set [1] (oral 100 mg./kg., Day 21) it was 16%; in data set [1] (oral 200 mg./kg., Day 14), 80%; in data set [1] (oral 200 mg./kg., Day 21) it was 57%. For the same molecule, the “Inhibition of Swelling (primary lesion)” value turned out to be 44% in data set [1] (oral 50 mg./kg., Day 14); 23% in data set [1] (oral 50 mg./kg., Day 21); 49% in data set [1] (oral 100 mg./kg., Day 14); 27% in data set [1] (oral 100 mg./kg., Day 21); 70% in data set [1] (oral 200 mg./kg., Day 14); 61% in data set [1] (oral 200 mg./kg., Day 21). Besides, the “Mean Weight Gain” value was 54 grams in data set [1] (oral 50 mg./kg., Day 14); 50 grams in data set [1] (oral 50 mg./kg., Day 21); 45 grams in data set [1] (oral 100 mg./kg., Day 14); 51 grams in data set [1] (oral 100 mg./kg., Day 21); 36 grams in data set [1] (oral 200 mg./kg., Day 14); 53 grams in data set [1] (oral 200 mg./kg., Day 21).

As to `COc1ccc2c(c1)c(CC(=O)O)c(C)n2C(=O)c1ccc(Cl)cc1` [Indomethocin, reference compound], the “arthritic paw swelling; joint and bone deterioration” value in data set [2] was “prevent joint and bone deterioration”. The “Inhibition of Swelling (primary lesion)” value in data set [1] (oral 0.25 mg./kg., Day 14) came to 30%; in data set [1] (oral 0.25 mg./kg., Day 21) it was 4%; in data set [1] (oral 0.5 mg./kg., Day 14), 40%; in data set [1] (oral 0.5 mg./kg., Day 21), 20%; in data set [1] (oral 1 mg./kg., Day 14) it was 46%; in data set [1] (oral 1 mg./kg., Day 21), 19%. Further, the “Inhibition of Swelling (primary lesion)” value in data set [1] (oral 2 mg./kg., Day 14) came out at 51%; in data set [1] (oral 2 mg./kg., Day 21) it was 24%.

As for `N#CCC(=O)c1ccsc1` [β-Oxo-3-thiophenepropionitrile, β-oxo-3-thiophenepropionitrile], the “Dead/Treated at 21 Days” value in data set [1] (oral 50 mg./kg. of body weight) is 1/18. Further, in data set [1] (oral 50 mg./kg., Day 14), the “Inhibition of Swelling (primary lesion)” value is given as 61% and the “Mean Weight Gain” value was determined as 53 grams. Besides, in data set [1] (oral 50 mg./kg., Day 21), the “Inhibition of Swelling (primary lesion)” value amounted to 26% and the “Mean Weight Gain” value is recorded as 50 grams.

As to `N#CC=C(N)c1ccsc1` [β-Amino-3-thiopheneacrylonitrile, β-amino-3-thiopheneacrylonitrile], the “Dead/Treated at 21 Days” value in data set [1] (oral 50 mg./kg. of body weight) was 2/18. Moreover, in data set [1] (oral 50 mg./kg., Day 14), the “Inhibition of Swelling (primary lesion)” value is listed as 52% and the “Mean Weight Gain” value was 47 grams. Moreover, in data set [1] (oral 50 mg./kg., Day 21), the “Inhibition of Swelling (primary lesion)” value turned out to be 41% and the “Mean Weight Gain” value came to 54 grams.

Regarding `CCCCC1C(=O)N(c2ccccc2)N(c2ccccc2)C1=O` [Phenylbutazone, reference compound], the “Inhibition of Swelling (primary lesion)” value in data set [1] (oral 18.8 mg./kg., Day 14) came out at 31%; in data set [1] (oral 18.8 mg./kg., Day 21) it was 7%; in data set [1] (oral 37.5 mg./kg., Day 14), 56%; in data set [1] (oral 37.5 mg./kg., Day 21), 14%; in data set [1] (oral 75 mg./kg., Day 14), 62%; in data set [1] (oral 75 mg./kg., Day 21) it was 28%. The “Inhibition of Swelling (primary lesion)” value in data set [1] (oral 150 mg./kg., Day 14) came out at 75%; in data set [1] (oral 150 mg./kg., Day 21) it was 44%.

Regarding `CC(=O)Oc1ccccc1C(=O)O` [Aspirin, reference compound], the “Inhibition of Swelling (primary lesion)” value came to 23% in data set [1] (oral 50 mg./kg., Day 14); 3% in data set [1] (oral 50 mg./kg., Day 21); 36% in data set [1] (oral 100 mg./kg., Day 14); 13% in data set [1] (oral 100 mg./kg., Day 21); 48% in data set [1] (oral 200 mg./kg., Day 14); 27% in data set [1] (oral 200 mg./kg., Day 21). In addition, the “Inhibition of Swelling (primary lesion)” value in data set [1] (oral 400 mg./kg., Day 14) was 73%; in data set [1] (oral 400 mg./kg., Day 21), 48%.
